Results on one compound are retold here after US20080234202A1, “Non-natural amino acids and neurotensin analogues” (priority 2004, published 2008).

Where a SMILES comes first, the peptide text is derived from it. [ ]: non-standard residue; d: D form. The star is where a group is joined. Tle = CC(C)(C)[C@H](N)C(=O)O; X1 = C[C@@H](CCCCCN)C(=O)*

The nature of series [1]: Catalepsy, horizontal bar test. To be noted: Table 11.
Description: Cataleptic Analysis. In laboratory tests, catalepsy is characterized by the inability of an animal to correct its position after placement in an unnatural posture. […] To circumvent these potential confounding factors, tests are performed on an animal only once in a quiet, controlled environment.
Catalepsy Assessment. […] Rats were given an IP injection of peptide (5 mg/Kg), saline, or haloperidol (1 mg/kg). After 3 hours, catalepsy was measured using the horizontal bar test. Briefly, the front paws were placed directly on a horizontal bar 5 mm in diameter placed 7.5 cm above the cage floor. The rat was held in this position for 3 sec and then released. The time from release until the paws return to the cage floor was measured and recorded. A cut-off time of 30 sec was observed; this indicated a fully cataleptic animal as cataleptic animals are frozen to the bar. […] Measures were repeated every 30 min for 4 hr. Data are means±SEM (p<0.01).
After 2 h, catalepsy was measured using the horizontal bar test. Data are means±SEM (p<0.01).
The subject of series [2] is mouse bone marrow cells. Description: Micronucleus study. It is filed as in vivo. To be noted: oral, CD-1 mice; initial data. As for the experimental part:
Genetic Toxicology. […] Experimental protocols are as follows.
In the micronucleus study, 90 CD-1 mice used in the study consisted of 10/sex/group in Groups 1-4 (control, low-, mid-, and high-dose) and 5/sex in the positive control group. Test peptide as administered orally, the positive control, Cyclophosphamide at 80 mg/kg, as administered orally. Approximately 24 and 48 hours after dosing, mice were killed and bone marrow obtained from both femurs. A slide of a bone marrow suspension was prepared, stained with Wright-Giemsa stain, dried, and scored blind. The number of polychromatic erythrocytes (PCE) among the total erythrocytes (PCE+normochromatic erythrocytes (NCE)) were determined for each animal by counting at least 200 erythrocytes. The number of micronucleated polychromatic erythrocytes (MPCE) then were scored for 2000 PCE per animal. A positive result was obtained if there is a positive dose-response trend or statistically significant increase in the number of MPCE at one or more dose levels compared to controls.

Series [3] concerns the target CYP3A4 (Homo sapiens, UniProt P08684). Description: Liver CYP screening: CYP3A4. Particulars: 10^−3, 10^−2, 0.1 M.
Description: (§1) Liver Receptor Screening (Stanford Research Institute Study B213-06).
In series [4] the target is CYP2D6 (Homo sapiens, UniProt P10635). Description: Liver CYP screening: CYP2D6. Particulars: 10^−3, 10^−2, 0.1 M.
Sequence of CYP2D6 (P10635 whole entry): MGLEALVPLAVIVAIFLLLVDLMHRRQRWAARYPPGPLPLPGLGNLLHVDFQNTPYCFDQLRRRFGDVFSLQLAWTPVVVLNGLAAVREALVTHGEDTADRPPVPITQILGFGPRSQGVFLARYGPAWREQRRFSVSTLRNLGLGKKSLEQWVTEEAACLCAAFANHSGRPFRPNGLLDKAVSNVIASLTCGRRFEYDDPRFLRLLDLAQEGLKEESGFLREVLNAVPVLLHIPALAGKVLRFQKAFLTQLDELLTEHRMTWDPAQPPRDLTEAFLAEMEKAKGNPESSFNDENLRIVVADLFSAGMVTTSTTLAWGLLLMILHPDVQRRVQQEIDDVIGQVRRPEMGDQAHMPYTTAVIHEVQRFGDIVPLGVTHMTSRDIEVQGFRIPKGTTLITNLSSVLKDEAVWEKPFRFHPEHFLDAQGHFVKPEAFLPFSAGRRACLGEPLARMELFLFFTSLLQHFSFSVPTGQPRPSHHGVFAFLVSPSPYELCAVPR
Description: as §1
Series [5] has as its target T1, CYP1A2 (Homo sapiens, UniProt P05177).
T1 sequence (P05177 1-516): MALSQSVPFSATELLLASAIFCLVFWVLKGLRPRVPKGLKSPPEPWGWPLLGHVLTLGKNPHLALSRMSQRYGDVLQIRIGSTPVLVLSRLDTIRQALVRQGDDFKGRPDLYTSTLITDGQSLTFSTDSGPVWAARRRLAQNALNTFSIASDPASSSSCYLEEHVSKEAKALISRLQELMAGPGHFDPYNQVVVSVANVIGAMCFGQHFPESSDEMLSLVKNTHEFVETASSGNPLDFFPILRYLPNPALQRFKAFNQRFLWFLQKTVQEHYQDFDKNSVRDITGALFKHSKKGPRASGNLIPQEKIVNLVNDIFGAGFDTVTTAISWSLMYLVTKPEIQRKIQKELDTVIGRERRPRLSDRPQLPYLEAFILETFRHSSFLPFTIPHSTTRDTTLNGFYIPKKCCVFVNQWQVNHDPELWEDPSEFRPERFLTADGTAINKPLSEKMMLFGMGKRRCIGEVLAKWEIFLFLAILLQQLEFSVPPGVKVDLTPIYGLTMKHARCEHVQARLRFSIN
Description: Liver CYP screening: CYP1A2. Particulars: 10^−3, 10^−2, 0.1 M.
Description: as §1

Series [6] is described as follows: Acute toxicity, clinical observation and maximum tolerated dose in rats. It is filed as in vivo, rat. On the procedure:
During the 2 and 24 hour post-dosing clinical observation periods, measurements of core body temperatures were taken.

The target of series [7] is hERG (human ether-a-go-go related gene) channels (Homo sapiens, UniProt Q12809). To be noted: HEK293, 35±2° C.; initial results.
Sequence of hERG (human ether-a-go-go related gene) channels (Q12809 whole entry): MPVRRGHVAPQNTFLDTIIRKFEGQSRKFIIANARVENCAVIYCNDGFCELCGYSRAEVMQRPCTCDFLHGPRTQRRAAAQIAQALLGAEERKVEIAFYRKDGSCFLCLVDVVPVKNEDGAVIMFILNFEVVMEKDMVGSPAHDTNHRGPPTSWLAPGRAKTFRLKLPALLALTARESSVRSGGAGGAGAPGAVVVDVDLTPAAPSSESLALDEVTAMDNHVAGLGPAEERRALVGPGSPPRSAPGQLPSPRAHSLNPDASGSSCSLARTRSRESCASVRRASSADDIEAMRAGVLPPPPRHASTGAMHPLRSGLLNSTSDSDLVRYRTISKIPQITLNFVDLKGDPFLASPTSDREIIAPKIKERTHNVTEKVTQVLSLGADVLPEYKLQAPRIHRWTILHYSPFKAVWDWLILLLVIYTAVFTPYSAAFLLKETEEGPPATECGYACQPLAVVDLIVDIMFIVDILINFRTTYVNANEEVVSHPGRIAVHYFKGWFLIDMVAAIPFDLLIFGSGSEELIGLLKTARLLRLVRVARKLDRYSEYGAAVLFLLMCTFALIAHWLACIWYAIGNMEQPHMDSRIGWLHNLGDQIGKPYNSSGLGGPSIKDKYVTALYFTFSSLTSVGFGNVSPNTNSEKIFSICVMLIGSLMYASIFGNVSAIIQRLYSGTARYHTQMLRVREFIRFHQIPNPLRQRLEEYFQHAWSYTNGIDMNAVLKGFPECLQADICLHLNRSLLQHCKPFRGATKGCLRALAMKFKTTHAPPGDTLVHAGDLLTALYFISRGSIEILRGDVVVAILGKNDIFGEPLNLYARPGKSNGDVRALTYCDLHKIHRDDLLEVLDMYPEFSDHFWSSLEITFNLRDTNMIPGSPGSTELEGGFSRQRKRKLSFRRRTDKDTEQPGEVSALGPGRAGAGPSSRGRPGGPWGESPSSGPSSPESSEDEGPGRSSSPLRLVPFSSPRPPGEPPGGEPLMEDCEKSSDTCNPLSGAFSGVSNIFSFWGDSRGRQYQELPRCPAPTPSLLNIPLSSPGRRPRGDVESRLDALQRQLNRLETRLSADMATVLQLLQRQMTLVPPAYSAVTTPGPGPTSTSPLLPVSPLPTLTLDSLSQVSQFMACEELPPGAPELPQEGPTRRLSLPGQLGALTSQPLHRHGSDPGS
Description: hERG Assay. The objective of the hERG study is to assess the effects of the test article on the rapidly activating inward rectifying potassium current (IKr) conducted by hERG (human ether-a-go-go related gene) channels stably expressed in a HEK293 cell line. The method used is as follows. HEK293 cells, stably transfected with hERG cDNA, were used in the study. All experiments were performed at near-physiological temperature (35±2° C.). A positive control (60 nM terfenadine) was applied to two cells (n≧2). Cells were be transferred to the recording chamber and superfused with HB-PS solution. The recording chamber and bathing solution were maintained at a temperature of 35±2° C. using a combination of in-line solution pre-heater, chamber floor heater, and feedback temperature controller. Bath temperature were measured using a thermistor probe.
Patch pipettes were made from glass capillary tubing using a P-97 micropipette puller (Sutter Instruments, Calif.). A commercial patch clamp amplifier was used for whole cell recordings. Before digitization, current records were low-pass filtered at one-fifth of the sampling frequency.
Cells stably expressing hERG were held at −80 mV.
Series [8] concerns the target T2, CYP2B6 (Homo sapiens, UniProt P20813).
T2 sequence (P20813 1-491): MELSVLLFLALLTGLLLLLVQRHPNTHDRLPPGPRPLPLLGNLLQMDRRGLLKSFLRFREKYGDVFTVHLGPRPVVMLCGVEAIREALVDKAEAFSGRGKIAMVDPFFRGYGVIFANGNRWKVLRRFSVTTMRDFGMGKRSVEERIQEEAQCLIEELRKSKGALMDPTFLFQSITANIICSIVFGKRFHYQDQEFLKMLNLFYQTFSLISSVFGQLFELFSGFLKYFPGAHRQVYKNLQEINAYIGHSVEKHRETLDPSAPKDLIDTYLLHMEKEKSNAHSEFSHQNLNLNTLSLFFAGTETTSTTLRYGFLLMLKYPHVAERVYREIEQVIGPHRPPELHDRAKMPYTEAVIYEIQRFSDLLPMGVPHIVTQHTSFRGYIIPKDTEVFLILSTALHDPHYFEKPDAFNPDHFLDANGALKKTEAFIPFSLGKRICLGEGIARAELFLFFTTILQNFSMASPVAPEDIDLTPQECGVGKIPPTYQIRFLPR
Description: Liver CYP screening: CYP2B6. Particulars: 10^−3, 10^−2, 0.1 M.
Description: as §1

Series [9] can be described thus: Blood and plasma pharmacokinetics of ABS201 in rats. The text has this: At selected time points, blood was removed or brain harvested and the concentration of the peptide analog determined using LC/MS/MS.
These samples were then used for the determination of plasma and brain drug levels by LC/MS/MS for estimating BBB penetration and pharmacokinetic parameters.

Series [10] deals with CYP2C9 (Homo sapiens, UniProt P11712). Description: Liver CYP screening: CYP2C9. To be noted: 10^−3, 10^−2, 0.1 M.
Sequence of CYP2C9 (P11712 whole entry): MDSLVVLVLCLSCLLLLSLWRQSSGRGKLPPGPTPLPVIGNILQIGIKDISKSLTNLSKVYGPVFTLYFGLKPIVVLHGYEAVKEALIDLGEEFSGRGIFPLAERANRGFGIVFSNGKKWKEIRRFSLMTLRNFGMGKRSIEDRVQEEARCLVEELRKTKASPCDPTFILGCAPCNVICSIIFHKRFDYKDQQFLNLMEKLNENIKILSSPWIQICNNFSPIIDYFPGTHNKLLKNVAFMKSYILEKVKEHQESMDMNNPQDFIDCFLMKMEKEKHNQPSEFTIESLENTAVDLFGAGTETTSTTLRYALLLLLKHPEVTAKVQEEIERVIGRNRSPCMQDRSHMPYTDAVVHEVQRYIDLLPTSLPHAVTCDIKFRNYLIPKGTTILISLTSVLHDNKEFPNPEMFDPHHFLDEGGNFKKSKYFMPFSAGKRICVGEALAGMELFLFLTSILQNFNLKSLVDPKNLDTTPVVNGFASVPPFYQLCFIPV
Description: as §1
Series [11] has as its target CYP2C19 (Homo sapiens, UniProt P33261). Description: Liver CYP screening: CYP2C19. Particulars: 10^−3, 10^−2, 0.1 M.
Description: as §1
For series [12] the following is noted: whole blood, 5 or 30 min at 37° C.
How the values of series [13] were obtained: These samples were used for the determination of plasma drug by LC/MS/MS for estimating pharmacokinetic parameters and segmental absorption. The bioavailability of intra-stomach, intra-duodenum, intra-jejunum, intra-colon administration relative to intravenous administration and gavage was calculated.
The conditions of series [14]: 5 or 30 min incubation at 37° C.

Sequence of CYP3A4 (P08684 whole entry): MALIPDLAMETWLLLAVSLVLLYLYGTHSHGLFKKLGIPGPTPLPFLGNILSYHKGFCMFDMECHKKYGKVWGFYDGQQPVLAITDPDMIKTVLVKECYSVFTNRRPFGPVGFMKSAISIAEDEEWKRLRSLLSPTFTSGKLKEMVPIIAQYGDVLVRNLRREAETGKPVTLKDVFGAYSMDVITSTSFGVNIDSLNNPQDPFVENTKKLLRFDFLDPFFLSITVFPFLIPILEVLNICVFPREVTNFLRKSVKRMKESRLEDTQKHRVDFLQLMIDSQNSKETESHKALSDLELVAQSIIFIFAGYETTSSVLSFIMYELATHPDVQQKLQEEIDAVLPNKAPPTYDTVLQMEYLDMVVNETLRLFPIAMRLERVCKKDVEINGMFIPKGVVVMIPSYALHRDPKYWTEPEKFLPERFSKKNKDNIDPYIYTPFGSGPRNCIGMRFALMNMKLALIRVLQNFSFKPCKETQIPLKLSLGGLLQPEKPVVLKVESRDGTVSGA
Sequence of CYP2C19 (P33261 whole entry): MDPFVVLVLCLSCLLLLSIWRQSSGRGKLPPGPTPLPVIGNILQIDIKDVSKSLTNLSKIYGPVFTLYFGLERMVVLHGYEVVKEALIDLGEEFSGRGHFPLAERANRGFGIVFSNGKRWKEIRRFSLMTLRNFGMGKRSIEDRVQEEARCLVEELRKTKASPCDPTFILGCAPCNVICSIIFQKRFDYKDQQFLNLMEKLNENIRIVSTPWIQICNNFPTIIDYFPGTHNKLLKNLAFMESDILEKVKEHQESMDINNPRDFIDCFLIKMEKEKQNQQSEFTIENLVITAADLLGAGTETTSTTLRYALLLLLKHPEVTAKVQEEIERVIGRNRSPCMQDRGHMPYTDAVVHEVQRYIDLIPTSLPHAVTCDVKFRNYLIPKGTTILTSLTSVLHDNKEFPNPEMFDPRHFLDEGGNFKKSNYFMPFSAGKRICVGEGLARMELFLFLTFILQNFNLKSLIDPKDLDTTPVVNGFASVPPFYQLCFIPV

As for `CC(C)C[C@H](NC(=O)[C@@H](NC(=O)[C@H](Cc1ccc(O)cc1)NC(=O)[C@@H]1CCCN1C(=O)[C@H](CCCNC(=N)N)NC(=O)[C@@H](C)CCCCCN)C(C)(C)C)C(=O)O` [ABS201, hLys-Arg-Pro-Tyr-t-Leu-Leu] (X1-RPY[Tle]L-OH), in series [1], the Catalepsy entry was “No”. Besides, the micronucleus study result in series [2] is “inactive”. The “inhibition of substrate binding” value in series [3], in series [4], in series [5], in series [8], in [10] and in series [11] was “No inhibition” in each case. In addition, the “lower limit for the MTD” value in [6] (rat, in vivo) is reported as no less than 100 times the ED50. Besides, the “Toxicity, dose without toxicity” value in series [6] (single acute dose I.P.) is listed as “(>100 × ED50)”. Moreover, in series [6] (single acute dose at 100x ED50 administered I.P.), the Toxicity result is listed as “No”. In [7], the hERG study result was “inactive”. In addition, the “time by which plasma levels decreased below the LLOD” value in [9] (IV 1 mg/kg) is listed as no more than 45 min. For the same compound, the “clearance as % of rat hepatic blood flow” value in series [9] (IV 5 mg/kg) worked out at 74.02%. Further, the “time over which measurable in whole blood” value in [9] (IV 5 mg/kg) is listed as “up to 120 minutes”. In addition, the “time over which detectable in the blood and brain” value in series [9] (IV 5 mg/kg or oral 50 mg/kg, LC/MS/MS) is “up to 120 minutes”. Also, in series [12], the “distribution into blood cellular elements” value is reported as “about 33%”. The “segment with maximal uptake” value in series [13] (in situ looped models) was “intra-duodenum exhibiting the maximal amount of uptake”. The “site of absorption in the GI tract” value in [13] (in situ looped models) is on record as “absorbed almost entirely in the intestine”. In [13] (intra-stomach), the “uptake in the stomach” value is on record as “Virtually no ABS201 is taken up in the stomach”. In [14], the “binding to plasma proteins” value was “little or no binding”.
